Data as given in patent publication US11091786B2, “Butelase-mediated peptide ligation” (Nanyang Technological University, priority 2015, dated 2021).
≈ marks a conversion by molar mass, not a printed value. Numbered stars: 1 amine (or outer) side, 2 acyl side, 3 side chain; on linkers, the order of the positions; unused ones are H or OH. Bridge positions count the residues as written; N and C are the ends. Square brackets hold non-standard residues; d marks the D form. Side chains are listed from the residue outwards. Ends that are not written are not given here. Peptide text beside a SMILES is read from it. I, II: the chains in the order shown. X1 = O=C(CO[*:1])[*:2]; βAla = NCCC(=O)O

How the values were obtained:
E. coli = format: cell-based
Method: (§1) The materials for radial diffusion assay were prepared as following:
(§2) Trypticase soy broth (TSB): Full-strength broth contains 30 grams of TSB powder per liter of deionized water. It was autoclaved at 120° C. for 20 min and stored at room temperature.
(§3) Underlay gel: 50 mL of […] sodium phosphate buffer, 5 ml full-strength TSB and 5 g agarose were mixed in a beaker followed by addition of deionized water to 500 mL. The medium was autoclaved at 120° C. for 20 min. Before use, it was maintained at 42° C. to prevent from solidifying.
(§4) Overlay gel: One liter of overlay gel contains 60 g of TSB powder and 10 g of agarose. The medium was autoclaved at 120° C. for 20 min. To prevent from solidifying, it was maintained at 42° C. before use.
(§5) The following protocol was applied to the radial diffusion assay.
(§6) 1. A single colony was picked and transferred into a 5 ml tube containing 2.5 ml TSB. The culture was shaken at 37° C. for 18 h.
(§7) 2. 50 μl of the stationary phase culture was diluted to 2.5 mL of autoclaved TSB (1:50 dilution) and shaken at 37° C. for another 3 h.
(§8) 3. This subculture was centrifuged at 5000 rpm for 5 min and the supernatant was discarded. The residual cells were washed with cold sterile 10 mM phosphate buffer, pH 7.4 and the buffer was discarded after centrifuge. 5 ml of the same buffer was added to resuspend the cells and its bacteria concentration was determined by measuring its optical density at 620 nm.
(§9) 4. 10 ml of antoclaved, molten underlay gel agar was transferred to a 15-ml eppendorf tube and mixed with 4×10^6 CFU of bacteria by vortexing. The mixture was then poured into a petri dish and gelled in less than […]. Wells were punched against the gel using a Pasteur pippette.
(§10) 5. Peptides to be tested were serially diluted and 3.5 μl of each sample was added to the well. The plates were incubated at 37° C. for 3 h with gel-side up.
(§11) 6. Next, each underlay gel was covered with 10 ml of overlay gel. After the gel solidified, the plates were turned gel-side up and incubated at 37° C. for overnight.
(§12) 7. The following morning, all the plates were taken out and the zone diameters were measured with ruler. All the samples were tested in duplicates and the results were averaged. The final minimum inhibition concentration (MIC) was determined using excel.
(§13) There is a growing interest to develop peptide-based antibiotics (Annu Rev Immunol. 1995, 13, 61-92; J Intern Med. 2003, 254, 197-215; Cent Eur J Biol 2007, 2, 1-33; Int J Pept Res Ther. 2010, 16, 199-213) because, compared with conventional antibiotics, they are less likely to develop drug resistance and have fewer side effects (J Med Chem. 2015, 58, 6533-6548; Biochemistry-Us. 2000, 39, 7159-7169; Eur J Biochem. 2000, 267, 3289-3300; Nucleic Acids Res. 2012, 40, W199-204). To apply the presently disclosed enzymatic method in preparing dendrimeric antimicrobials, inventors synthesized two antimicrobials 12 (bivalent) and 13 (tetravalent) (MS shown in supporting information) which harbored a tetrapeptide RLYR (SEQ ID NO:121) as the antibacterial sequence (Eur J Biochem. 2002, 269, 923-932) by ligating N-acetylated thiodepsipeptide 10 Ac-RLYRN-thioglc-V (SEQ ID NO:120) with dendron core 2 and 6 respectively. The RLYR (SEQ ID NO:121) tetrapeptide contains a BHHB motif (B=basic, H=hydrophobic) which is commonly found in certain potent and broad-spectrum β-stranded antimicrobial peptides (BioDrugs. 2013, 27, 479-493) such as PG (protegrins) (Febs Lett. 1993, 327, 231-236) and RTD-1 (rhesus monkey theta defensin) (Science. 1999, 286, 498-502). This consensus motif with positive charged and hydrophobic residues was successfully used as a dendrimeric antimicrobial in 2002 (Eur J Biochem. 2002, 269, 923-932). Such short peptide-based dendrimeric antimicrobials are broad-spectrum antibiotics and kill bacterial cells through electrostatic and hydrophobic interactions with the negatively charged microbial cytoplasmic membranes (Biochemistry-Us. 2009, 48, 5642-5657). […]

S. aureus = format: cell-based
Method: as §1, §2, §3, §4, §5, §6, §7, §8, §9, §10, §11, §12, §13

butelase 1 [1] = test: Butelase-mediated ligation kinetic characterization (Lineweaver-Burk); format: biochemical, Clitoria ternatea; conditions: 0.1 μM butelase 1, 1 mM GIGGIR, peptide 25 to 400 μM, pH 6.5, 42° C.
Method: Ligation assays were performed in 50-μl mixtures containing reaction buffer (1 mM EDTA, 20 mM phosphate buffer, pH 6.5), 0.1 […] butelase 1, 1 mM GIGGIR (SEQ ID NO:114) and varying concentrations of peptides 1-4 (25 to 400 μM). The reactions were performed in triplicate at 42° C. and quenched by adding 5 μl of 1 M HCl solution. The peptides were separated by using a reversed-phase C18 analytical column (150×2.1 mm, Vydac) with a linear gradient from 5% to 40% acetonitrile over 15 min on a Nexera UHPLC system (Shimadzu). The ligation velocities were calculated by converting the HPLC-peak areas of remained linear precursors or the ligated products into concentrations. The identity of each HPLC peak was analyzed by MALDI-TOF MS (ABI 4800 MALDI TOF/TOF). The kinetic parameters (kcat and Km) for each peptide were obtained by the LineweaverBurk plot.

[2] = Degradation time course of peptide in reaction buffer without butelase 1 (HPLC); format: physicochemical; conditions: absence of butelase 1, peptide 100 μM, 42° C.
Method: (§14) FIG. 9. Degradation time course for thiodepsipeptide 1 and depsipeptide 2. Each peptide (100 μM) was incubated in the absence or presence of butelase 1 (50 nM) at 42° C. The peptide stability was monitored by HPLC every […].
(§15) To apply butelase 1 for N-terminal labeling of proteins, inventors used ubiquitin and green fluorescent protein (GFP) as examples (FIG. 4). Since butelase 1 prefers a hydrophobic amino acid (Ile/Leu/Val) or Cys at the P2″ position of an acceptor nucleophile, inventors prepared a recombinant ubiquitin protein (SEQ ID NO:122) with Gly-Ile at the N-terminus and His-tag at the C-terminus. It was also examined whether this method would work if His-tag was located at the N-terminus. Inventors thus prepared a recombinant GFP (SEQ ID NO:123) with an additional Ile inserted between the start codon and the N-terminal His-tag. Both proteins were labeled with the model thiodepsipeptide 1 in the presence of 0.001 molar equivalent of butelase 1. The labeling of proteins was slower as compared to the labeling of peptide 5, probably due to large differences in size between the model peptide and proteins. Furthermore, the N-terminal amino group of proteins may have a lower accessibility to butelase 1 as compared to peptides. […]

butelase 1 [3] = test: Degradation time course of peptide in the presence of butelase 1 (HPLC); format: biochemical; conditions: Clitoria ternatea, butelase 1 in reaction buffer, presence of 0.0005 molar equivalent of butelase 1 (50 nM), peptide 100 μM, 42° C.
Method: as §14, §15

butelase 1 [4] = conditions: highest reported value; cited from earlier work

Molecule: CC[C@H](C)[C@H](NC(=O)[C@@H](N)CCCNC(=N)N)C(=O)NCCC(=O)NCCCC[C@H](NC(=O)CCNC(=O)[C@@H](NC(=O)[C@@H](N)CCCNC(=N)N)[C@@H](C)CC)C(=O)N[C@@H](Cc1ccc(O)cc1)C(N)=O [Bivalent dendron core 2, (RIβA)2KY] (H-RI[βAla]K([βAla-Ile-Arg])Y-NH2; N-terminus assumed)
- MIC (E. coli): >150 µM
- MIC (S. aureus): >150 µM

Molecule: CC[C@H](C)[C@H](NC(=O)[C@H](CCCNC(=N)N)NC(=O)[C@H](CC(N)=O)NC(=O)[C@H](CCCNC(=N)N)NC(=O)[C@H](Cc1ccc(O)cc1)NC(=O)[C@H](CC(C)C)NC(=O)[C@H](CCCNC(=N)N)NC(C)=O)C(=O)NCCC(=O)NCCCC[C@H](NC(=O)CCNC(=O)[C@@H](NC(=O)[C@H](CCCNC(=N)N)NC(=O)[C@H](CC(N)=O)NC(=O)[C@H](CCCNC(=N)N)NC(=O)[C@H](Cc1ccc(O)cc1)NC(=O)[C@H](CC(C)C)NC(=O)[C@H](CCCNC(=N)N)NC(C)=O)[C@@H](C)CC)C(=O)N[C@@H](Cc1ccc(O)cc1)C(N)=O [Dimer 12, (Ac-RLYRNRIβA)2KY] (I: Ac-RLYRNRI[βAla]KY-NH2 / II: Ac-RLYRNRI[βAla]; amide I:9-II:C)
- MIC (E. coli): 18.3 µM (≈ 45.4 µg/mL)
- MIC (S. aureus): 3.4 µM (≈ 8.43 µg/mL)

Molecule: CC(C)C[C@H](NC(=O)[C@@H](N)CCCNC(=N)N)C(=O)N[C@@H](Cc1ccc(O)cc1)C(=O)N[C@@H](CCCNC(=N)N)C(N)=O [Monomer 11, RLYR, reference compound] (H-RLYR-NH2; N-terminus assumed)
- MIC (E. coli): >300 µM
- antimicrobial activity (in words) (E. coli; E. coli, high-salt condition (100 mM NaCl)): no appreciable activity
- MIC (S. aureus): >300 µM
- antimicrobial activity (in words) (S. aureus; S. aureus, high-salt condition (100 mM NaCl)): no appreciable activity

Molecule: CC(C)[C@H](NC(=O)CSC(=O)[C@H](CC(N)=O)NC(=O)[C@H](CCCCN)NC(=O)[C@@H](N)Cc1ccc(O)cc1)C(N)=O [Peptide 1, YKN(S)GV]
- Km (butelase 1 [1]): 2760 ± 300 µM
- kcat (butelase 1 [1]): 56.5 ± 7.5 s⁻¹
- half-life at 100 μM [2]: ~75 min
- half-life at 100 μM (butelase 1 [3]): 40 min

Molecule: CC(C)[C@H](NC(=O)COC(=O)[C@H](CC(N)=O)NC(=O)[C@H](CCCCN)NC(=O)[C@@H](N)Cc1ccc(O)cc1)C(N)=O [Peptide 2, YKN(O)GV] (H-YKN[X1]V-NH2; N-terminus assumed)
- Km (butelase 1 [1]): 740 ± 10 µM
- kcat (butelase 1 [1]): 12.4 ± 0.32 s⁻¹
- half-life at 100 μM [2]: 45 min
- half-life at 100 μM (butelase 1 [3]): 37 min

Molecule: CC[C@H](C)[C@H](NC(=O)[C@@H](N)CCCNC(=N)N)C(=O)NCCC(=O)NCCCC[C@H](NC(=O)CCNC(=O)[C@@H](NC(=O)[C@@H](N)CCCNC(=N)N)[C@@H](C)CC)C(=O)NCCCC[C@H](NC(=O)[C@H](CCCCNC(=O)CCNC(=O)[C@@H](NC(=O)[C@@H](N)CCCNC(=N)N)[C@@H](C)CC)NC(=O)CCNC(=O)[C@@H](NC(=O)[C@@H](N)CCCNC(=N)N)[C@@H](C)CC)C(=O)N[C@@H](Cc1ccc(O)cc1)C(N)=O [Tetravalent dendron core 6, (RIβA)4K2KY]
- MIC (E. coli): >150 µM
- MIC (S. aureus): >150 µM

Molecule: YKNGV (not fully specified (C-terminus)) [Peptide 4]
- Km (butelase 1 [1]): 880 ± 80 µM
- kcat (butelase 1 [1]): 7.9 ± 0.72 s⁻¹

Molecule: YKNHV (not fully specified (C-terminus)) [Peptide 3]
- Km (butelase 1 [1]): 300 ± 10 µM
- kcat (butelase 1 [1]): 4.1 ± 0.65 s⁻¹

B1: Butelase 1: Asn/Asp(Asx)-specific ligase isolated from the medicinal plant Clitoria ternatea (SEQ ID NO:1) (protein, listed as Clitoria ternatea)
chain: VEGTRWAVLVAGSKGYVNYRHQADVCHAYQILKKGGLKDENIIVFMYDDIAYNESNPHPGVIINHPYGSDVYKGVPKDYVGEDINPPNFYAVLLANKSALTGTGSGKVLDSGPNDHVFIYYTDHGGAGVLGMPSKPYIAASDLNDVLKKKHASGTYKSIVFYVESCESGSMFDGLLPEDHNIYVMGASDTGESSWVTYCPLQHPSPPPEYDVCVGDLFSVAWLEDCDVHNLQTETFQQQYEVVKNKTIVALIEDGTHVVQYGDVGLSKQTLFVYMGTDPANDNNTFTDKNSLGTPRKAVSQRDADLIHYWEKYRRAPEGSSRKAEAKKQLREVMAHRMHIDN
- catalytic efficiency (butelase 1 [4]): up to 542,000 M^−1 s^−1
